Measured values as given in patent publication US7582656B2, “Guanidine derivatives and therapeutic uses thereof” (Merck Patent Gesellschaft, priority 2004, dated 2009).

Legend:
human CETP promoter = assay: luciferase reporter under the control of the human CETP promoter, inhibition of CETP expression; type: cell-based; settings: final concentration of 15 μM, incubated overnight, Steady Glo luciferase read by luminometer
Method: The stably transfected cell line (luciferase under the control of the human CETP promoter) is maintained in the growth medium (DMEM/Hepes, F12, Glutamax, FBS and geneticin) incubated at 37° C., 95% humidity and 5% CO2 to the point of confluence. The cells are then rinsed with PBS and detached with a trypsin/EDTA mixture. The medium is changed every 2 to 3 days.
The resuspended cells are diluted and counted, and then distributed in microplate (96) wells.
About 20 000 cells per well are distributed and incubated overnight at 37° C. with 5% CO2.
The compounds of the present invention are diluted to a final concentration of 15 μM and distributed in the plates containing the cells.
The plates are incubated overnight at 37° C. with 5% CO2.
The medium covering the cells is drawn off and 100 μl of Steady Glo luciferase (DMEM without phenol red/Steady Glo, V/V) are added to the cells.
The plates are sealed with a film and left in the dark for about 20 minutes at room temperature.
The plates are then read using a luminometer (1 sec/well).
The inhibition of CETP expression by the products is expressed as a percentage of the control: […]

[1] = tested on: stably transfected cell line; assay: neutral red cellular toxicity check of the cultures; type: cell-based; settings: neutral red 3 hours at 37° C., read at 540 nm
Method: On another batch of plates not treated with Steady Glo, the state of the cultures is checked by microscope. The culture medium is removed and 100 μl of medium comprising neutral red are added for 3 hours at 37° C.
The medium is then removed and replaced for one minute with 100 μl of formaldehyde-calcium (10 ml of 37% formaldehyde+calcium chloride dihydrate 10 g qs 1 L).
The plate is emptied and 100 μl of acetic acid-ethanol mixture (10 ml of glacial acetic acid+500 ml of absolute ethanol qs 1 L) are added to each well for 15 minutes with stirring.
The plates are then read at 540 nm. The stronger the coloration, […].

SMILES | activity expressed as a percentage of the control (human CETP promoter) | cellular toxicity [1]
NCCCNC(=Nc1ccc(OCCCC(F)(F)F)cc1)N1CCC(Cc2ccccc2)CC1 [Example 95, N-(3-Aminopropyl)-4-benzyl-N′-[4-(4,4,4-trifluorobutoxy)phenyl]piperidine-1-carboxamidine] | 16% | No cellular toxicity is detected
CC(C)CCN=C(NCC(C)(C)CN)Nc1ccc(OCc2ccccc2)cc1 [Example 5, N-(3-Amino-2,2-dimethylpropyl)-N′-(4-benzyloxyphenyl)-N″-(3-methylbutyl)-guanidine] | 46% | No cellular toxicity is detected
COCCOc1ccc(N=C(NCCCN)N2CCC(C)CC2)cc1 [Example 31, N-(3-Aminopropyl)-N′-[4-(2-methoxyethoxy)phenyl]-4-methylpiperidine-1-carboxamidine] | 30% | No cellular toxicity is detected
CCC1CCCCN1C(=Nc1ccc(OCc2ccc(C(C)(C)C)cc2)cc1)NCCCN (centres unmarked) [Example 61, N-(3-Aminopropyl)-N′-[4-(4-tert-butylbenzyloxy)phenyl]-2-ethylpiperidine-1-carboxamidine] | 33% | No cellular toxicity is detected
